Experiments:
[1] = test system: BRCA1-mutated HCC1395 cells; experiment: Proliferation inhibitory test of BRCA1-mutated HCC1395 cells (CCK-8); assay type: cell-based; conditions: Homo sapiens, 120 h, 5 days, read-out: IC50 (nM), inhibitory activity against BRCA1-mutated HCC1395 cells
Procedure: (§1) CCK-8 was used to measure the content of mitochondrial dehydrogenase in cells at different drug concentrations, and the luminescence intensity was used to reflect the cell activity. The IC50 values of different compounds on BRCA1-mutated HCC1395 cells were calculated using the survival rate, and the proliferation inhibitory effect of the compounds of the present disclosure on BRCA1-mutated HCC1395 cells was studied to evaluate the anti-tumor efficacy of the test compounds at the cellular level.
(§2) On Day −1, the cells were inoculated into the 96-well cell culture plate at a fixed cell density and then placed in the 5% CO2 cell incubator for culture overnight at 37° C.
(§3) On Day 0, the compound to be tested was prepared into a 10 mM stock solution and diluted into 9 concentration points at the concentration of 1,000 nM, 300 nM, 100 nM, 30 nM, 10 nM, 3 nM, 1 nM, 0.3 nM and 0.1 nM in two duplicated wells. A fixed volume of the diluted compound was added to the 96-well cell culture plate and then placed in the 5% CO2 cell incubator for culture at 37° C. for 5 days.
(§4) On Day 5, a fixed volume of CCK-8 was added to the 96-well cell culture plate and incubated in the 5% CO2 cell incubator at 37° C. for 1.5 h, and the plate was read by a chemiluminescence module of the multifunctional microplate reader.
(§5) With the logarithmic value of the concentration as an X axis and the survival percentage as a Y axis, a dose-effect curve was fitted by using a log(inhibitor) vs. response-Variable slop (Four parameters) formula of the analysis software Graphpad Prism 9, thereby obtaining the IC50 value of the anti-proliferation inhibitory activity of each compound against BRCA1-mutated HCC1395 cells.

[2] = Study on pharmacokinetics of rats (oral gavage, plasma LC-MS/MS); assay type: in vivo; conditions: female SD rats, po. 3 mg/kg
Procedure: With SD rats as test animals, the plasma concentration in the plasma of rats at different time points after oral administration of the compounds of the present application was determined by an LC-MS/MS method. Pharmacokinetic parameters of the compounds of the present application in rats were obtained to study pharmacokinetic characteristics.
SD rats, female, body weight 180-220 g, 3 rats per group. After being purchased, the animals were fed in an animal house for an adaptation period of at least 3 days and then used for testing after passing quarantine.
3.1. Grouping: The SD rats were randomly grouped according to Table 4, which had no statistical difference in the body weight between groups after grouping.
3.2. Vehicle: 10% DMSO and 90% (20% SBE-β-CD in saline).
According to Table 4, each compound was prepared into a clear solution with the vehicle, respectively, and each group was administered by gavage with the corresponding test drug. Before administration, and at 15 min, 30 min, 1 h, 2 h, 4 h, 6 h, 8 h and 24 h after the administration, a fixed volume of blood was collected through sinuses jugularis, placed in an EDTA-K2 anticoagulant tube, and centrifuged at 4,000 rpm for 10 min to separate the plasma in a centrifuge tube. The plasma was frozen in a refrigerator at −80° C.
The plasma stored at −80° C. at each time point was taken out, and a fixed volume of acetonitrile was added thereto. After being vortexed at 1,500 rpm for 2 min, it was centrifuged for 15 min (3,500 r/min). A fixed volume of solution supernatant was taken for LC-MS/MS analysis.
The pharmacokinetic behaviors of the test compounds were fitted with a non-compartmental model, and the main pharmacokinetic parameters were calculated using DAS3.31 software.

[3] = test system: BRCA1-mutated MDA-MB-436 cells; experiment: Proliferation inhibitory test of BRCA1-mutated MDA-MB-436 cells (CCK-8); assay type: cell-based; conditions: Homo sapiens, 120 h, 5 days, read-out: IC50 (nM), inhibitory activity against BRCA1-mutated MDA-MB-436 cells
Procedure: as §1, with “MDA-MB-436” for “HCC1395”
as §2, §3, §4
as §5, with “MDA-MB-436” for “HCC1395”

Cc1nc(C(=O)NC2CC2)ccc1N1CCN(Cc2cc(F)c3nc(C)c(=O)[nH]c3c2)CC1 [Compound 55, N-cyclopropyl-5-(4-((8-fluoro-2-methyl-3-oxo-3,4-dihydroquinoxalin-6-yl)methyl)piperazin-1-yl)-6-methylpicolinamide]
IC50 [1]: 2.56 nM | Cl_F_obs [2]: 2.33 mL/min/kg | AUC(0-t) ([2]; rat): 21300 ng·h/mL | Cmax ([2]; rat): 2210 ng/mL | half-life ([2]; rat): 6.26 h | IC50 [3]: 2.2 nM

From patent US20250346573A1, “AZAQUINOLINONE DERIVATIVE, PREPARATION METHOD THEREFOR AND USE THEREOF” (CHENGDU EASTON BIOPHARMACEUTICALS CO., LTD., priority 2022, published 2025)
